The values below are quoted from earlier work in patent publication US20190167598A1, “A NOVEL TREATMENT REGIMEN INVOLVING SAPROPTERIN DIHYDROCHLORIDE” (DIPHARMA S.A., priority 2016, published 2019).

The conditions of data set [1]: in vivo.
The conditions of data set [2]: neutral or basic conditions.

Consider `C[C@H](O)[C@H](O)[C@H]1CNc2[nH]c(N)nc(=O)c2N1.Cl.Cl` [sapropterin, (6R)-2-amino-6-[(1R,2S)-1,2-dihydroxypropyl]-5,6,7,8-tetrahydropteridin-4(1H)-one dihydrochloride], for which, in data set [1], the “sapropterin elimination half-life time” value is recorded as “about 4 h”. In addition, the oxidation into dihydrobiopterin result in data set [2] was “readily oxidized”.
